From patent publication US9220705B2, “Method of treating colorectal cancer” (priority 2013, dated 2015) come the findings set out here.

Common to all, as to type: cell-based, human
For one test, the system named is SW480. The test is described as follows: MTT cytotoxicity assay, 72 h. To be noted: SW480, colon.
A further test relates to DLD-1. The test can be described thus: MTT cytotoxicity assay, 72 h. To be noted: DLD-1, colon. Background: Tetrazolium dyes change colour on reduction, which living cells bring about.
The next test deals with MCF-7. The test can be described thus: MTT cytotoxicity assay, 72 h. To be noted: MCF-7, breast.
A further test has as its system A431. The test can be described thus: MTT cytotoxicity assay, 72 h. To be noted: A431, cervix.
The test system of another test is A375. The test is described as follows: MTT cytotoxicity assay, 72 h. To be noted: A375, skin.
The subject of a further test is HCT-15. The test is described as follows: MTT cytotoxicity assay, 72 h. To be noted: HCT-15, colon.
Test [1] concerns 2008 ovarian cancer cells. The test is described as follows: MTT cytotoxicity assay, cross-resistance profile. To be noted: 72 h.
Test [2] relates to LoVo-OXP oxaliplatin resistant colon cancer cells. The test can be described thus: MTT cytotoxicity assay, cross-resistance profile. To be noted: for R.F. (resistance factor): IC50 LoVo-OXP / IC50 LoVo, cross-resistance with oxaliplatin.
Test [3] relates to C13* cisplatin resistant ovarian cancer cells. The test can be described thus: MTT cytotoxicity assay, cross-resistance profile. To be noted: for R.F. (resistance factor): IC50 C13* / IC50 2008, cross-resistance with cisplatin.
The test system of test [4] is LoVo MDR multidrug resistant colon carcinoma subline. The test is described as follows: MTT cytotoxicity assay, cross-resistance profile.

One may read the IC50 as the concentration at which inhibition is half-maximal. Read a low IC50 as higher potency. Regarding `O=C1[O][Pt-2]2([NH2+]C3CCCC[C@H]3[NH2+]2)[O]C1=O` (stereo partly drawn) [oxaliplatin, [(1R,2R)-cyclohexane-1,2diamine](ethanedioato)platinum(II), reference compound], the half-maximal inhibitory concentration (IC50) with SW480 was determined as 4.2 ± 0.75 µM; with DLD-1, 5.81 ± 1.93 µM; in the test on MCF-7, 3.36 ± 1.69 µM; with A431, 3.69 ± 1.03 µM; in the test with A375, 2.37 ± 1.31 µM; in the test with HCT-15 it was 1.25 ± 1.05 µM. Moreover, the half-inhibitory concentration (IC50) in [1] turned out to be 1.65 ± 1.01 µM; in test [2] (LoVo-OXP, 72 h, MTT), 17.5 ± 1.79 µM; in [3] (C13*, 72 h, MTT) it was 3.33 ± 1.84 µM; in test [4] (LoVo-MDR, 72 h, MTT), 1.36 ± 0.81 µM. Further, the “R.F. (resistance factor)” value turned out to be 17 in test [2]; 17 in test [2] (listed as OXP); 2.0 in test [3]; 2 in [3] (listed as OXP); 1.3 in [4] (IC50 LoVo-MDR / IC50 LoVo).
